Data as given in ChEMBL document CHEMBL1201862, “PubChem BioAssay data set” (2004).
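Results reflect a 48-hour exposure of cells in 96-well plates to compound at five concentrations. GI50 is the concentration that inhibits growth by half.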 Activity calls are given as the source filed them. Cut-off read from the data, not from the text of the source: active = GI50 up to about 1.1 µM and inactive = higher.

Columns and labels:
Test in all cases: growth of human tumour cells (NCI), 48 h
EKVX = test system: EKVX
NCI-H460 = test system: NCI-H460
SNB-75 = test system: SNB-75
A549 = test system: A549
SW-620 = test system: SW-620
SK-MEL-5 = test system: SK-MEL-5
Hs-578T = test system: Hs-578T
HCT-15 = test system: HCT-15
OVCAR-3 = test system: OVCAR-3
HL-60 = test system: HL-60
UACC-257 = test system: UACC-257
NCI-H23 = test system: NCI-H23
KM12 = test system: KM12
MDA-MB-435 = test system: MDA-MB-435
ACHN = test system: ACHN
SF-539 = test system: SF-539
SK-MEL-28 = test system: SK-MEL-28
SF-295 = test system: SF-295
NCI-H522 = test system: NCI-H522
U-251 = test system: U-251

| Compound | GI50 (EKVX) | GI50 (NCI-H460) | GI50 (SNB-75) | GI50 (A549) | GI50 (SW-620) | GI50 (SK-MEL-5) | GI50 (Hs-578T) | GI50 (HCT-15) | GI50 (OVCAR-3) | GI50 (HL-60) | GI50 (UACC-257) | GI50 (NCI-H23) | GI50 (KM12) | GI50 (MDA-MB-435) | GI50 (ACHN) | GI50 (SF-539) | GI50 (SK-MEL-28) | GI50 (SF-295) | GI50 (NCI-H522) | GI50 (U-251) |
| --- | --- | --- | --- | --- | --- | --- | --- | --- | --- | --- | --- | --- | --- | --- | --- | --- | --- | --- | --- | --- |
| CSc1ccc(NC(=O)C2CCCCC2C(=O)O)cc1 (stereo not given) | > 100 µM (inactive) | > 100 µM (inactive) | > 100 µM (inactive) | > 100 µM (inactive) | > 100 µM (inactive) | > 100 µM (inactive) | > 100 µM (inactive) | > 100 µM | > 100 µM (inactive) | > 100 µM (inactive) | > 100 µM (inactive) | > 100 µM (inactive) | > 100 µM (inactive) | > 100 µM (inactive) | > 100 µM (inactive) | > 100 µM (inactive) | > 100 µM (inactive) | > 100 µM (inactive) | > 100 µM (inactive) | > 100 µM (inactive) |
| COc1cccc(C(=O)O[C@H]2[C@@H]3[C@]4(OC(C)=O)CO[C@@H]4C[C@H](O)[C@@]3(C)C(=O)[C@H](OC(C)=O)C3=C(C)[C@@H](OC(=O)[C@H](O)[C@@H](NC(=O)OC(C)(C)C)c4ccco4)C[C@]2(O)C3(C)C)c1 | 0.173 µM (active) | < 0.00375 µM (active) | < 0.00375 µM (active) | < 0.00375 µM (active) | < 0.00375 µM (active) | < 0.00375 µM (active) | < 0.00375 µM (active) | < 0.00375 µM | < 0.00375 µM (active) | < 0.00375 µM (active) | 21.3 µM (inactive) | 6.04 µM (inactive) | < 0.00375 µM (active) | < 0.00375 µM (active) | 0.139 µM (active) | < 0.00375 µM (active) | 3.82 µM (inactive) | < 0.00375 µM (active) | < 0.00375 µM (active) | < 0.00375 µM (active) |
| O=[N+]([O-])C(=C/C1CCCCC1)/C(=C\C1CCCCC1)[N+](=O)[O-] | 9.4 µM (inactive) | 5.16 µM (inactive) | 14.1 µM (inactive) | 18.6 µM (inactive) | 3.35 µM (inactive) | 7.83 µM (inactive) | 2.84 µM (inactive) | 1.85 µM | 9.23 µM (inactive) | 2.09 µM (inactive) | 8.63 µM (inactive) | 2.99 µM (inactive) | 11.1 µM (inactive) | 4.56 µM (inactive) | 3.5 µM (inactive) | 2.18 µM (inactive) | 5.06 µM (inactive) | 16.3 µM (inactive) | 1.8 µM (inactive) | 3.73 µM (inactive) |
| COC(=O)c1ccccc1C1CN=NC12Cc1cc(C)ccc1C2=O (stereo not given) | > 100 µM (inactive) | > 100 µM (inactive) | 71 µM (inactive) | > 100 µM (inactive) | > 100 µM (inactive) | > 100 µM (inactive) | 49 µM (inactive) | > 100 µM | 57 µM (inactive) | 92.7 µM (inactive) | > 100 µM (inactive) | > 100 µM (inactive) | 92.9 µM (inactive) | 62.4 µM (inactive) | > 100 µM (inactive) | > 100 µM (inactive) | > 100 µM (inactive) | > 100 µM (inactive) | 63.8 µM (inactive) | > 100 µM (inactive) |
| COC(=O)[C@H]1COC(=O)N1 | > 100 µM (inactive) | > 100 µM (inactive) | > 100 µM (inactive) | > 100 µM (inactive) | > 100 µM (inactive) | > 100 µM (inactive) | > 100 µM (inactive) | > 100 µM | > 100 µM (inactive) | 89.7 µM (inactive) | > 100 µM (inactive) | > 100 µM (inactive) | > 100 µM (inactive) | > 100 µM (inactive) | > 100 µM (inactive) | > 100 µM (inactive) | > 100 µM (inactive) | > 100 µM (inactive) | > 100 µM (inactive) | > 100 µM (inactive) |
